Assays:
HEK293 cells = experiment: Cell viability assay (MTT); type: cell-based, human; conditions: low micromolar range, 24 h
Description: (§1) Figure 2 Competitive ABPP with photo‐cleavable inhibitor 5 in HEK293 cells. A) Schematic overview of a competitive ABPP experiment. A proteome is pre‐incubated with a competitor, followed by a labeling reaction with an activity‐based probe (ABP). In the case of a photocaged inhibitor, the active compound can be released via irradiation. Target proteins of the competitor cannot be bound by the ABP, resulting in an absence of the respective protein band in‐gel analysis. Created in BioRender. Najdzion, M. (2025) https://BioRender.com/84zn8cb B) Gel‐based competitive ABPP experiment in HEK293 cell lysates with the broadband serine hydrolase ABP ≡FP or the DPP8/9‐directed ABP 2 and the photocaged inhibitor 5, at the indicated concentrations, after or without prior irradiation with green light for 5 min. The corresponding pre‐incubation time for 5 was 30 min. C) Corresponding in situ competitive ABPP experiment in HEK293 cell culture, again with 10 µM 2 for 1 h. Labeling was competed by pre‐incubation with 20 µM 5 for 1 h, followed by an activation of the photocaged inhibitor by irradiation for 5 min with a green LED lamp, if applicable. D) Green light treatment has no cytotoxic effect. HEK293 cells were irradiated with a green LED lamp in the presence of 0.5% DMSO for 5 min (‘light’), and cell viability was measured after 24 h. […] Data was normalized to the non‐irradiated control (‘dark’). E) Green light treatment leads to the release of the active DPP8/9 inhibitor. HEK293 cells were incubated with compound 1 or 5 for 24 h. For both compounds, cell viability was measured under ‘dark’ (not irradiated) and ‘light’ (irradiated for 5 min with a green LED lamp after the addition of the inhibitor) conditions. […] Data was normalized to the non‐irradiated DMSO control.
(§2) In order to validate target engagement in living cells and potential cytotoxic effects of green light treatment, we determined cell viability of HEK293 cells after 24 h inhibitor treatment with 5 with or without 5 min green light irradiation, as the application of DPP8/9 inhibitors at high concentrations and thus elimination of any residual DPP8/9 activity results in cytotoxicity.^[ [38], [39] ^– [40] ^] As a control, effects of green light treatment on cell viability were examined in the absence of any inhibitor after 24 h, again with or without 5 min irradiation (Figure 2D). […] Of note, no additional effect of the photocage on cell viability was observed. In summary, our cell viability studies confirm target engagement in live cells exclusively after photorelease, thereby again confirming the suitability of the photocaged DPP8/9 inhibitor 5 as a cell biological tool compound.
(§3) To investigate the cytotoxicity of compounds, 2 × 10^4 HEK293 cells were cultured in DMEM (+/+) on 96‐well flat‐bottom cell culture plates (Sarstedt, Germany) as described above. After 24 h, cells were treated with indicated concentrations of compounds (final DMSO concentration: 0.5%) and, if applicable, irradiated with a green LED lamp (λ = 520−530 nm; Eurolite, Germany) for 5 min. Control cells were treated with DMSO. Cell viability was measured 24 h after compound treatment. To this end, 25 µL Thiazolyl Blue Tetrazolium Bromide (MTT) solution (5 mg mL^−1 MTT (Sigma Aldrich, USA) in PBS (Gibco, USA)) was added to each well directly into the medium. After 3 h of incubation at 37 °C, the medium was removed and formazan crystals were dissolved by adding 150 µL DMSO (1 h, 37 °C, gentle shaking), followed by an absorbance measurement at 570 and 630 nm as a reference using a Tecan Spark 10 M multimode microplate reader (Tecan Group Ltd., Switzerland). Each experiment was performed with five replicates. Relative cell viability was expressed as a percentage relative to the DMSO‐treated control cells.

[1] = Cell viability assay (MTT); type: cell-based, human; conditions: human, HEK293 cells, regardless of irradiation, read-out: Remaining viability
Description: as §1, §2, §3

[2] = type: physicochemical; conditions: longer irradiation times, green LED 520-530 nm, up to 5 min
Description: With 5 in our hands, we then started our probe characterization by determining the velocity of the photorelease reaction, i.e., the light‐triggered cleavage of the photocage, thereby delivering again the “active” inhibitor 1. To this end, a 50 µM solution of 5 in 10% acetonitrile in MS‐grade water was irradiated with a green LED lamp (λ = 520‐530 nm, 30 W) for the indicated time periods, and the release of the active inhibitor 1 was quantified via liquid chromatography‐mass spectrometry (LC–MS) analysis (Figure 1A). […] After 3 min, cleavage was quantitative (>99%). Importantly, the only products observed were the desired ‘free’ inhibitor 1 and the cleaved photogroup, indicating a clean activation to 1.
Figure 1 DPP inhibition by photo‐cleavable inhibitors. A) LC‐MS analysis of the photocleavage reaction of 5 after irradiation with green light. 50 µM of compound 5 was irradiated with a green LED lamp (λ = 520‐530 nm, 30 W) for up to 5 min, and the resulting reaction mixture was analyzed via LC‐MS. […] B) Resulting quantification of the photolysis of 5 based on peak areas depicted in A) (n = 3 technical replicates). […] Enzyme activity was determined by measuring the release of AMC from the substrate GP‐AMC. […]
Compound 5 was dissolved in DMSO. In order to quantify the effect of irradiation time on photocleavage of the BODIPY moiety, 50 µL aliquots of a 50 µM solution of 5 in 10% acetonitrile (ACN; VWR Chemicals, USA) in MS‐grade water (VWR Chemicals, USA) were irradiated for 0–5 min with a green LED lamp (λ = 520–530 nm, 30 W; Eurolite, Germany) at room temperature (RT) and gentle shaking (final DMSO concentration: 0.5%).
Quantification of inhibitor release was then determined via LC‐MS on an LTQ XL linear ion trap mass spectrometer (ITMS; Thermo Fisher Scientific, USA) coupled to a DIONEX UltiMate 3000 system (Thermo Fisher Scientific, USA), operated using Xcalibur software 4.4.16.14. […] Quantification was done using Freestyle v1.6. based on the UV spectra (λ = 254 nm) using the Avalon peak detection algorithm. […]

DPP9 = DPP9 (Homo sapiens, UniProt Q86TI2); experiment: In vitro gel-based competitive ABPP in HEK293 cell lysates, 100 kDa band; design: endogenous in cells; host or cells: HEK293 (Cytion, Germany, 300192); conditions: HEK293 lysate; 10 µM probe, 1 h; ca. 100 kDa (DPP9) and 70 kDa (PREP); regardless of irradiation
Description: Therefore, HEK293 cell lysates were pre‐incubated with 10 µM 5 or DMSO vehicle control for 30 min, followed by a labeling reaction with 2 µM of the serine hydrolase‐specific ABP fluorophosphonate‐alkyne (≡FP) or 10 µM 2 (Figure 2B). […] Of note, this band has been previously assigned as DPP9 (DPP8 would migrate in the same range, but is only expressed at low levels in the used cell line and therefore cannot be visualized by this approach).^[ [36] ^, [37] ^] […] Again, this labeling was observed regardless of prior irradiation. Subsequently, the competitive labeling experiment was conducted by pre‐incubation with compound 5, with or without subsequent irradiation.
as §1
For in vitro ABPP, cell lysates were generated from HEK293 cells grown on a 10 cm tissue dish. […] The cell lysates were cleared via centrifugation (30 min, 20,817 × g, 4 °C), and protein concentration was determined with a modified Bradford assay using Roti‐Nanoquant (Carl Roth, Germany). […]

Sequence of DPP9 (Q86TI2 whole entry): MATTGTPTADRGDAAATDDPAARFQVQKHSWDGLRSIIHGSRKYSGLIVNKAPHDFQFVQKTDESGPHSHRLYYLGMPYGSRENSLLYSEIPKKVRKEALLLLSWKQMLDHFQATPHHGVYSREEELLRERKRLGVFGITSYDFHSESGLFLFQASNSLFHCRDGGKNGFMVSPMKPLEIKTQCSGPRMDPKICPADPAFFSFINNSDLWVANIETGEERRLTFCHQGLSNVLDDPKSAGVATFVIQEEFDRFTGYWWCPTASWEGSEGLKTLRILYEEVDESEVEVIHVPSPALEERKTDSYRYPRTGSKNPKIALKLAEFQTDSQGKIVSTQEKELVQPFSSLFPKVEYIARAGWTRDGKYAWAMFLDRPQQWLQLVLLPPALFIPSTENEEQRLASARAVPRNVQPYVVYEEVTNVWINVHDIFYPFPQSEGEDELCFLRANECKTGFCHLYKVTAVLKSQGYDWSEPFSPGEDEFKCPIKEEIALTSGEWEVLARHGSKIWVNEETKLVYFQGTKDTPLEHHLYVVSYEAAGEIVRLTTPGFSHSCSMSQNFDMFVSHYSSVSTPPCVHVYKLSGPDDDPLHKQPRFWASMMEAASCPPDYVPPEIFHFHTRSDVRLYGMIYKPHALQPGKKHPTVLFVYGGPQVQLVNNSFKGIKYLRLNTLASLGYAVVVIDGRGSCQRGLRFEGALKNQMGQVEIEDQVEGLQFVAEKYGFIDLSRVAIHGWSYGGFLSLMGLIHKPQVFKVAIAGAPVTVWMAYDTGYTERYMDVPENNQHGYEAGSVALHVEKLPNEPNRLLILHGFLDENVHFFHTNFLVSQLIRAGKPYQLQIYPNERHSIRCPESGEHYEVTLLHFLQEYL

| Structure (SMILES) | Effect on cell viability (in words) (HEK293 cells) | viability at 24 h, 25 µM ([1]; 25 µM) [%] | viability at 24 h, 50 µM ([1]; 50 µM) [%] | Photostability under photorelease conditions (in words) [2] | Bands labeled by the probe in ABPP (in words) (DPP9) |
| --- | --- | --- | --- | --- | --- |
| CCCCCc1ccc(SCCP(=O)(OCC)N2CCC[C@H](N)C2=O)cc1 (some centres unmarked) [Compound 1] | did not significantly affect cell viability | ~65 | ~15 | did not lead to further side products | – |
| C#CCCCP(=O)(OCC)N1CCC[C@H](N)C1=O (some centres unmarked) [Compound 2] | – | – | – | – | two bands |

From publication PMC12498190, “A Photocaged N‐Phosphonopiperidinone as a Selective Photo‐Cleavable DPP8/9 Inhibitor” (Chembiochem, 2025)
